Measurements as given in article PMC7244497 (Scientific Reports, 2020).

Columns and labels:
[1] = cited from earlier work
[2] = system: DOP receptor dephosphorylation at T361 and S363; assay: DOP receptor dephosphorylation after DPDPE washout with phosphatase inhibitors (Western blot, HEK293 cells); type: cell-based, human; settings: HEK293 HA-hDOP; inhibitor preincubated 30 min, 1 µM DPDPE 10 min, citrate washout, 0-40 min

Row | SMILES | Effective dose in most behavior assays [1] | Effect on DOP receptor dephosphorylation at T361 and S363 [2]
1 | CCN(CC)C(=O)c1ccc(C2=CC3(CCNCC3)Oc3cccc(O)c32)cc1 [ADL5859, N,N-diethyl-4-(5-hydroxyspiro[chromene-2,4′-piperidine]-4-yl)benzamide] | 10 mg/kg | 
2 | CCN(CC)C(=O)c1ccc(C(=C2CCNCC2)c2ccccc2)cc1 [AR-M1000390, N,N-Diethyl-4-(phenylpiperidin-4-ylidenemethyl)benzamide] | 10 mg/kg | 
3 | COC[C@@H]([C@H](O)[C@H](O)C(=O)NCC[C@H](C)c1nc(/C=C/C[C@@H]2O[C@]3(C[C@@H](O)[C@@H]2C)O[C@H]([C@H](C[C@H](O)[C@H](C)[C@H](O)[C@H](C)/C=C(C)/C(C)=C/C=C/C(C)=C\C#N)OC)[C@H](OP(=O)(O)O)C3(C)C)co1)N(C)C [calyculin A] |  | inhibited in a concentration-dependent manner only by calyculin A
